From patent US20170217976A1, “6-(AMINO ACID)-MORPHINAN DERIVATIVES IN COMBINATION WITH PERMEATION […] FOR USE AS AN ORALLY, […], TRA[…] NASALLY AD[…]” (C[…], priority 2014, published 2017)
Read-outs that look alike come from different tables or passages of the source.

How the values were obtained:
DOR = biological target: T1, DOR (Rattus norvegicus, UniProt P33533); test: Opioid receptor binding, DOR, rat brain membranes
T1 construct: from tissue

KOR = biological target: T2, KOR (Cavia porcellus, UniProt P41144); test: Opioid receptor binding, KOR, guinea pig brain membranes
T2 construct: from tissue
T2 sequence (P41144 whole entry): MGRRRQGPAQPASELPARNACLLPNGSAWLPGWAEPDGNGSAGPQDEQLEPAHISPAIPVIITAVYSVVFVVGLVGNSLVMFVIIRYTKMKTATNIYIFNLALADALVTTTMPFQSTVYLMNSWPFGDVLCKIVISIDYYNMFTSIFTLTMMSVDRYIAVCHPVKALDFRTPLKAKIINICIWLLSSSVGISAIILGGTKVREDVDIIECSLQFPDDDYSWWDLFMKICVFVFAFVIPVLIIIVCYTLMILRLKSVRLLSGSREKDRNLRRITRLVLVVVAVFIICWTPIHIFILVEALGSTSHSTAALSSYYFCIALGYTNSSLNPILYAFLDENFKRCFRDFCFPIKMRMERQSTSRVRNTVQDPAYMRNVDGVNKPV

MOR = biological target: T3, MOR (Rattus norvegicus, UniProt P33535); test: Opioid receptor binding, MOR, rat brain membranes
T3 construct: from tissue
T3 sequence (P33535 whole entry): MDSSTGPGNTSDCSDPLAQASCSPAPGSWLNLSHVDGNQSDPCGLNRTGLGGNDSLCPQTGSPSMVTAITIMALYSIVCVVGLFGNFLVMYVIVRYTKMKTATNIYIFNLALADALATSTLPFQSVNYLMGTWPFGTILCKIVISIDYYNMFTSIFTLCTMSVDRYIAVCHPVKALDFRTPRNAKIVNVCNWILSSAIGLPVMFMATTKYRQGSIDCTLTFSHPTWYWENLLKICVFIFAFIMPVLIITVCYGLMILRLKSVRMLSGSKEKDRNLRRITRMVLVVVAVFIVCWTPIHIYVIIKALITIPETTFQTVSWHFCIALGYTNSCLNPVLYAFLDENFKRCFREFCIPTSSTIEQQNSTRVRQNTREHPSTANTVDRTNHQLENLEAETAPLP

[1] = in vitro binding assay, rat brain membranes, read-out: Binding Ki (nM) DOR
[2] = in vitro binding assay, guinea pig brain membranes, read-out: Binding Ki (nM) KOR
[3] = in vitro binding assay, rat brain membranes, read-out: Binding Ki (nM) MOR
[4] = Binding Ki DOR, Table 1-6, rat brain membranes
[5] = Binding Ki KOR, Table 1-6, guinea pig brain membranes
[6] = Binding Ki MOR, Table 1-6, rat brain membranes
[7] = Binding Ki DOR, Table 2-6, rat brain membranes
[8] = Binding Ki KOR, Table 2-6, guinea pig brain membranes
[9] = Binding Ki MOR, Table 2-6, rat brain membranes
[10] = Binding Ki (nM) DOR, in vitro binding assay, rat brain membranes
[11] = Binding Ki DOR, Table 1-4, rat brain membranes
[12] = Binding Ki (nM) KOR, in vitro binding assay, guinea pig brain membranes
[13] = Binding Ki KOR, Table 1-4, guinea pig brain membranes
[14] = Binding Ki (nM) MOR, in vitro binding assay, rat brain membranes
[15] = Binding Ki MOR, Table 1-4, rat brain membranes

T1 sequence (P33533 whole entry): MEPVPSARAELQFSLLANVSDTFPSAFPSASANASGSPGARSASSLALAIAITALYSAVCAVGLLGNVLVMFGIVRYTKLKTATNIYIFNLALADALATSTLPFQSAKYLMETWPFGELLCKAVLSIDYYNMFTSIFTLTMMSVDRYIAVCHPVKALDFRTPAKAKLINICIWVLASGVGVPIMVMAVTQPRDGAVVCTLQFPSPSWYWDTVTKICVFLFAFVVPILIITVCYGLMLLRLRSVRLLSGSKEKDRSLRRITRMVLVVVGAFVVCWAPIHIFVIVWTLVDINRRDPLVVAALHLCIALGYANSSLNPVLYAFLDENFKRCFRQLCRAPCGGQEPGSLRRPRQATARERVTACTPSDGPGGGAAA

Compound CO[C@@]12CC[C@H](N[C@H](C(=O)OC(C)(C)C)C(C)C)[C@@H]3Oc4c(O)ccc5c4[C@@]31CCN(C)[C@@H]2C5 [28-t-Bu ester] has a Ki (DOR; [1]) of 0.18 nM, a Ki (KOR; [2]) of 10.5 nM and a Ki (MOR; [3]) of 0.25 nM.

In the case of O=C(O)CN[C@H]1CC[C@@]2(O)[C@H]3Cc4ccc(O)c5c4[C@@]2(CCN3CC2CC2)[C@H]1O5 [Compound 67], the Ki (DOR; [4]) is reported as 13.1 nM, the Ki (KOR; [5]) is reported as 2.81 nM and the Ki (MOR; [6]) is reported as 0.88 nM.

CO[C@@]12CC[C@@H](N[C@@H](C(=O)OC(C)(C)C)C(C)C)[C@@H]3Oc4c(O)ccc5c4[C@@]31CCN(CC1CC1)[C@@H]2C5 [71-tBu ester] gave a Ki (DOR; [7]) of 0.24 nM, a Ki (KOR; [8]) of 15.2 nM and a Ki (MOR; [9]) of 1.94 nM.

COC12CCC(NC(C(=O)O)C(C)C)C3Oc4c(O)ccc5c4C31CCN(C)C2C5 (single isomer, unassigned) [Compound 29] showed a Ki (DOR; [10]) of 3.52 nM, a Ki (DOR; [11]) of 3.52 nM and a Ki (KOR; [12]) of 305 nM. For the same compound, the Ki (KOR; [13]) was 305 nM, the Ki (MOR; [14]) was 3.04 nM and the Ki (MOR; [15]) was 3.04 nM.

Work on CO[C@@]12CC[C@H](N[C@@H](CC(C)C)C(=O)OC(C)(C)C)[C@@H]3Oc4c(O)ccc5c4[C@@]31CCN(C)[C@@H]2C5 [40-t-Bu ester] yielded a Ki (DOR; [10]) of 0.13 nM, a Ki (KOR; [12]) of 8.07 nM and a Ki (MOR; [14]) of 0.087 nM.

For CO[C@@]12CC[C@H](NCCCC(=O)OC(C)(C)C)[C@@H]3Oc4c(O)ccc5c4[C@@]31CCN(C)[C@@H]2C5 [15-t-Bu ester], the Ki (DOR; [10]) was 7.99 nM, the Ki (KOR; [12]) was 8.82 nM and the Ki (MOR; [14]) was 0.22 nM.

Work on CO[C@@]12CC[C@H](NCCCC(=O)OC(C)(C)C)[C@@H]3Oc4c(O)ccc5c4[C@@]31CCN(CC1CC1)[C@@H]2C5 [65-tBu ester] yielded a Ki (DOR; [7]) of 2.69 nM, a Ki (KOR; [8]) of 0.6 nM and a Ki (MOR; [9]) of 0.46 nM.

For CO[C@@]12CC[C@@H](N[C@@H](CCC(=O)O)C(=O)O)[C@@H]3Oc4c(O)ccc5c4[C@@]31CCN(CC1CC1)[C@@H]2C5 [Compound 75], the Ki (DOR; [4]) was 2.77 nM, the Ki (DOR; [7]) was 2.77 nM and the Ki (KOR; [5]) was 12.9 nM. The Ki (KOR; [8]) was 12.9 nM, the Ki (MOR; [6]) was 3.35 nM and the Ki (MOR; [9]) was 3.35 nM.

For CO[C@@]12CC[C@H](N[C@@H](CC(C)C)C(=O)O)[C@@H]3Oc4c(O)ccc5c4[C@@]31CCN(C)[C@@H]2C5 [Compound 40], the Ki (DOR; [10]) was 2.34 nM, the Ki (DOR; [11]) was 2.34 nM and the Ki (KOR; [12]) was 141 nM. The Ki (KOR; [13]) was 141 nM, the Ki (MOR; [14]) was 0.68 nM and the Ki (MOR; [15]) was 0.68 nM.

For CC(NC1CCC2(O)C3Cc4ccc(O)c5c4C2(CCN3C)C1O5)C(=O)O (stereo not drawn) [Compound 13], the Ki (DOR; Table 1-4, rat brain membranes, read-out: Binding Ki DOR) was 170 nM, the Ki (KOR; Table 1-4, guinea pig brain membranes, read-out: Binding Ki KOR) was 710 nM and the Ki (MOR; Table 1-4, rat brain membranes, read-out: Binding Ki MOR) was 3 nM.

For CO[C@@]12CC[C@@H](NCC(=O)OCc3ccccc3)[C@@H]3Oc4c(O)ccc5c4[C@@]31CCN(C)[C@@H]2C5 [HS731-benzyl ester], the Ki (DOR; [1]) was 0.74 nM, the Ki (KOR; [2]) was 2.86 nM and the Ki (MOR; [14]) was 0.29 nM.

CO[C@@]12CC[C@@H](N[C@@H](CC(C)C)C(=O)O)[C@@H]3Oc4c(O)ccc5c4[C@@]31CCN(CC1CC1)[C@@H]2C5 [Compound 77] was tested, and the Ki (DOR; [7]) was 1.13 nM, the Ki (KOR; [8]) was 11 nM and the Ki (MOR; [9]) was 1.96 nM.

CO[C@@]12CC[C@@H](N[C@@H](Cc3c[nH]c4ccccc34)C(=O)OC(C)(C)C)[C@@H]3Oc4c(O)ccc5c4[C@@]31CCN(C)[C@@H]2C5 [46-t-Bu ester] gave a Ki (DOR; [1]) of 0.36 nM, a Ki (KOR; [2]) of 9.89 nM and a Ki (MOR; [3]) of 0.26 nM.

Work on CO[C@@]12CC[C@@H](N[C@@H](C)C(=O)OC(C)(C)C)[C@@H]3Oc4c(O)ccc5c4[C@@]31CCN(CC1CC1)[C@@H]2C5 [72-tBu ester] yielded a Ki (DOR; [7]) of 0.32 nM and a Ki (KOR; [8]) of 9.68 nM.

CO[C@@]12CC[C@H](NCC(=O)OC(C)(C)C)[C@@H]3Oc4c(O)ccc5c4[C@@]31CCN(C)[C@@H]2C5 [HS730-t-Bu ester] was tested, and the Ki (DOR; [10]) was 0.54 nM and the Ki (KOR; [12]) was 12.1 nM.

Compound COC12CCC(NC(C)C(=O)O)C3Oc4c(O)ccc5c4C31CCN(C)C2C5 (single isomer, unassigned) [Compound 1] has a Ki (DOR; [10]) of 26.9 nM, a Ki (DOR; [11]) of 26.9 nM and a Ki (KOR; [12]) of 142 nM. For the same compound, the Ki (KOR; [13]) was 142 nM.

In the case of CO[C@@]12CC[C@@H](N[C@@H](Cc3ccccc3)C(=O)OC(C)(C)C)[C@@H]3Oc4c(O)ccc5c4[C@@]31CCN(C)[C@@H]2C5 [4-t-Bu ester], the Ki (DOR; [1]) is reported as 2.66 nM and the Ki (MOR; [14]) is reported as 2.56 nM.

Compound COC12CCC(NC(C)C(=O)O)C3Oc4c(O)ccc5c4C31CCN(C)C2C5 (single isomer, unassigned) [Compound 2] has a Ki (DOR; [10]) of 7.71 nM, a Ki (DOR; [11]) of 7.71 nM and a Ki (KOR; [12]) of 63.7 nM. The Ki (KOR; [13]) was 63.7 nM.

COC12CCC(NC(C)C(=O)O)C3Oc4c(O)ccc5c4C31CCN(C)C2C5 (single isomer, unassigned) [Compound 54] showed a Ki (DOR; [11]) of 11.3 nM and a Ki (KOR; [13]) of 142 nM.

Work on COC12CCC(NC(C)C(=O)O)C3Oc4c(O)ccc5c4C31CCN(C)C2C5 (single isomer, unassigned) [Compound 53] yielded a Ki (DOR; [11]) of 10.4 nM and a Ki (KOR; [13]) of 71.5 nM.
